# Measurements published in paper PMC7732128, “Regulation of gene transcription by thyroid hormone receptor β agonists in clinical development for the treatment of non-alcoholic steatohepatitis (NASH)” (PLoS ONE, 2020).
# Entries after “also recorded” stand apart in the source; their conditions may differ. Like-named read-outs stand apart in the source and are kept apart here.
# What was measured:
# THRβ over THRα = settings: from ligand-binding affinities (Kd or Ki); cited from earlier work
# THRβ (α:β) = tested on: THRβ (α:β); design: method as in PMID 32768645; settings: coactivator recruitment assay; cited from earlier work
# cholesterol-fed rat = tested on: cholesterol-fed rat; design: method as in PMID 18975928; settings: cited from earlier work
# [1] = design: method as in doi:10.1016/s0735-1097(16)31933-7; settings: 14-day treatment, ≥ 5 mg; cited from earlier work
# [2] = tested on: THR (liver Cpt1a, Dio1, Me1, Thrsp RNA); experiment: High-fat diet fed rat study: liver gene expression; format: in vivo; settings: HFD rats
# Experimental: (§1) Eighty-four male Sprague Dawley rats, approximately 8 to 11 weeks of age, were fed with either a normal diet, ND (D12450K: 10 kcal% fat, no sucrose), or high-fat diet, HFD (D12109C: 40 kcal% fat, 1.25 gm% cholesterol, 0.5 gm% sodium cholate, 12.5 gm% sucrose). After 12 days of diet consumption, baseline serum total cholesterol and low-density lipoprotein cholesterol (LDL-C) levels were measured with the cobas 6000 c501 Chemistry Analyzer (Roche) to confirm hypercholesterolemia in the HFD fed rats. Animals were then randomized into treatment groups.
# (§2) Serum total cholesterol and LDL-C levels were determined as described above. […] Caudate lobes of the liver were used for analysis of hepatic total cholesterol (Abcam, ab65390) and triglyceride levels (Abcam, ab65336) via enzyme-linked immunosorbent assay. Right lateral lobes were stored in RNAlater (Invitrogen, AM7020) at -70°C until homogenization with the Scientz-48 TissueLyser LT for downstream gene expression analysis. RNA extraction was performed at WuXi AppTec (Hong Kong) Limited (China) with the RNeasy Mini Kit (Qiagen, 74106) and RNA concentration and quality was determined using the Nanodrop 2000 (Thermo Scientific); additional quality control was assessed with agarose gel electrophoresis. One μg total RNA from each sample was then reverse-transcribed using the High Capacity cDNA Reverse Transcription kit (Applied Biosystems, 4368814) and the resulting cDNA was diluted 1:5 with nuclease-free, distilled water. Gene expression was measured using TaqMan Fast Advanced Master Mix and the following TaqMan Gene Expression assays: Actb (Rn00667869_m1), Cpt1a (Rn00580702_m1), Dio1 (Rn00572183_m1), Me1 (Rn00561502_m1), Rplp1 (Rn03467157_gH), and Thrsp (Rn01511034_m1). Actb and Rplp1 served as control housekeeping genes. Ten μL reactions were run on the qTOWER³ 84. Relative quantification (RQ) of gene expression was calculated via the 2^−ΔΔCt method and statistical analysis was performed in GraphPad Prism 8.0 and Microsoft Excel.
# [3] = High-fat diet fed rat study: plasma compound concentration (LC-MS/MS); format: in vivo; settings: male, Sprague Dawley, po, HFD rats, read-out: Plasma AUC0-24hrs
# Experimental: as §1
# as §2, with “Twenty-four hrs after dosing, animals were euthanized by CO2 inhalation and serum and plasma were collected along with liver tissue. Serum” for “Serum”, “Ten μL reactions were run on the qTOWER³ 84.” left out
# HFD fed rats = experiment: High-fat diet fed rat study: serum and hepatic lipid levels; format: in vivo
# Experimental: Animals were purchased from Vital River Laboratory Animal Technology Co. Ltd. and experiments were conducted at Covance Pharmaceutical R&D (Shanghai) Co., Ltd. (China). Animals were group-housed in polycarbonate cages with corncob bedding under controlled temperature (21–25°C), humidity (40–70%), and a 12-hr light/dark cycle. All procedures performed were in compliance with local animal welfare legislation, Covance global policies and procedures, and the Guide for the Care and Use of Laboratory Animals.
# as §1
# as §2, with “Twenty-four hrs after dosing, animals were euthanized by CO2 inhalation and serum and plasma were collected along with liver tissue. Serum” for “Serum”
# [4] = tested on: hepatic OATP1B1/B3 transporters; design: method as in PMID 19785645; settings: cited from earlier work
# healthy volunteers = settings: two weeks, ≥ 80 mg; cited from earlier work
# [5] = 4 hrs after 5.0 or 1.5 mg/kg, vs vehicle
# [6] = 0.5 mg/kg P.O. single dose, 24 hrs
# [7] = 5.0 and 1.5 mg/kg P.O. single dose, 24 hrs post-dose
structure (smiles),measurement,setting,value
Cc1cc(OCP(=O)(O)O)cc(C)c1Cc1ccc(O)c(C(C)C)c1 [VK2809A],selectivity for THRβ over THRα,THRβ over THRα,15.8 fold
same,selectivity for THRβ (α:β),THRβ (α:β),2.1
Cc1cc(OCP2(=O)OCC[C@@H](c3cccc(Cl)c3)O2)cc(C)c1Cc1ccc(O)c(C(C)C)c1 (stereo partly drawn) [VK2809],reduction in total cholesterol,cholesterol-fed rat; single dose 0.5 mg/kg,36%
same,decrease in total cholesterol,cholesterol-fed rat; single dose 3.0 mg/kg,≤ 55%
same,reduction in LDL-C,[1],up to 41.2%
"CC(C)c1cc(Oc2c(Cl)cc(-n3nc(C#N)c(=O)[nH]c3=O)cc2Cl)n[nH]c1=O [MGL-3196, 2-[3,5-dichloro-4-(5-isopropyl-6-oxo-1,6-dihydropyridazin-3-yloxy)phenyl]-3,5-dioxo-2,3,4,5-tetrahydro[1,2,4]triazine-6-carbonitrile]","liver Cpt1a, Dio1 and Thrsp RNA levels",[2]; [5],"activated the transcription of Cpt1a, Dio1, and Thrsp in a dose-dependent manner"
same,liver Me1 RNA level,[2]; [5],no significant increase
same,increases in liver Cpt1a and Thrsp RNA levels,[2]; 24 hrs after 5.0 or 1.5 mg/kg,dampened
same,liver Dio1 and Me1 transcription,"[2]; 24 hrs after 5.0 or 1.5 mg/kg, vs vehicle",significantly increased
same,increase in liver Dio1 expression between doses,[2]; between 1.5 and 5 mg/kg,1.3 fold
same,AUC(0-t),[3]; 0.5 mg/kg P.O. single dose,2600 ng·h/mL
same,AUC(0-t),[3]; 1.5 mg/kg P.O. single dose,8200 ng·h/mL
same,AUC(0-t),[3]; 5.0 mg/kg P.O. single dose,21700 ng·h/mL
same,effect on serum LDL-C,HFD fed rats; [6],did not significantly lower
same,effect on serum total cholesterol,HFD fed rats; [6],no significant effect; also recorded: did not significantly lower
same,effect on serum triglyceride levels,HFD fed rats; [6],did not have a significant effect; also recorded: did not significantly lower
same,decrease in serum triglyceride levels (pre-dose vs 24 hrs post-dose),HFD fed rats; 1.5 mg/kg P.O. single dose,37.5%
same,decrease in serum total cholesterol (pre-dose vs 24 hrs post-dose),HFD fed rats; 5 mg/kg P.O. single dose,33.6%
same,decrease in serum triglyceride levels (pre-dose vs 24 hrs post-dose),HFD fed rats; 5.0 mg/kg P.O. single dose,32.1%
same,effect on hepatic cholesterol levels,HFD fed rats; [7],did not significantly affect
same,effect on hepatic triglyceride levels,HFD fed rats; [7],did not significantly affect
same,transporter substrate,[4],substrate
same,reduction in LDL-C,healthy volunteers,21.8–30.3%
same,reduction in total cholesterol,healthy volunteers,16.0–22.8%
